Test results taken from ChEMBL document CHEMBL1201862, “PubChem BioAssay data set” (2004).
Activity calls are given as the source filed them.

Tests used:
[1] = NIH-3T3 fibroblast cytotoxicity, dose response, cytotoxicity control, cell-based, fluorescence, Alamar Blue, secondary assay (AID 2327); format: functional;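 also: NIH-3T3 mouse fibroblasts cultured with fluconazole at 8 µg/mL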
[2] = fluconazole-exposed Candida albicans growth modulators – fluorescence, retest, confirmation (AID 2467); format: functional, cell-based
[3] = target: T1, Serine/threonine-protein phosphatase (Candida dubliniensis (strain CD36 / CBS 7987 / NCPF 3949 / NRRLY-17841) (Yeast), UniProt B9W6M3); test: blockers of CaCl2-induced CDRE-lacZ signaling – S. cerevisiae, luminescence, secondary, dose response (AID 2388); format: functional, cell-based;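 also: yeast reporter cells carrying a calcineurin-responsive lacZ construct stimulated with calcium chloride; luminescent beta-galactosidase reporter signal in whole cells rather than isolated phosphatase activity; potency for inhibition where a drop in reporter signal means calcineurin blockade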
T1 sequence (B9W6M3 whole entry): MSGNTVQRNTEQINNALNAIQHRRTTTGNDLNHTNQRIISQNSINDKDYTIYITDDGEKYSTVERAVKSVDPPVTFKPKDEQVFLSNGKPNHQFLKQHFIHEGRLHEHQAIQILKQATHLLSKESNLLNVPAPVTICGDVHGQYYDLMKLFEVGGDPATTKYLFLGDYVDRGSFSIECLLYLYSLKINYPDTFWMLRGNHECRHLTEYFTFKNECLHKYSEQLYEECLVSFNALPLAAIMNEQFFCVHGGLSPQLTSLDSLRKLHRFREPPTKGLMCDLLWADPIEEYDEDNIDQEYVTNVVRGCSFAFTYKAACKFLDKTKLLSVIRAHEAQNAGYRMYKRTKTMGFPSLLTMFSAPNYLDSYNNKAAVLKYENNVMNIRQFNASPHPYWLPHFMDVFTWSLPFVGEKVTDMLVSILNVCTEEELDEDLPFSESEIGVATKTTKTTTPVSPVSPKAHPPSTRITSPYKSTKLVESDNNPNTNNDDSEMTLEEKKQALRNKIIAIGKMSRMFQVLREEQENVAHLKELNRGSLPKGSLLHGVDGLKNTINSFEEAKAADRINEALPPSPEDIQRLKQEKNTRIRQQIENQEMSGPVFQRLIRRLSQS

[4] = target: ATP-dependent molecular chaperone HSP82 (Candida albicans (strain WO-1) (Yeast), UniProt C4YTQ8); test: steroid-induced GRE reporter decrease in yeast – S. cerevisiae, luminescence, Hsp90 inhibitor project, dose response (AID 2400); format: functional, cell-based;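 also: beta-galactosidase luminescence from glucocorticoid response element reporter as proxy for Hsp90 function; inhibitor potency where signal loss means Hsp90 inhibition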
[5] = target: Mu-type opioid receptor (Homo sapiens, UniProt P35372); format: functional, cell-based;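 also: U2OS cells with beta-arrestin recruitment to OPRM1 by beta-gal complementation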
[6] = target: 5-hydroxytryptamine receptor 2A (Mus musculus, UniProt P35363); format: functional, cell-based;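 also: CHO-K1 cells with tagged receptor and beta-arrestin; agonist potency measured as compound-induced activation of the receptor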
[7] = target: Voltage-gated inwardly rectifying potassium channel KCNH2 (Homo sapiens, UniProt Q12809); settings: Potency;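 also: confirmatory quantitative high-throughput screen measuring inhibition of hERG channel activity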
[8] = target: Dual specificity tyrosine-phosphorylation-regulated kinase 1A (Rattus norvegicus, UniProt Q63470); format: biochemical, Homo sapiens
[9] = test system: Escherichia coli; test: microbe, parasite or virus in culture
[10] = target: T2, Heat shock factor protein 1 (Mus musculus, UniProt P38532); test: decrease of HSF1-responsive luciferase luminescence – cell-based, NIH3T3, dose retest, confirmation (AID 2382); format: functional;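 also: NIH3T3 fibroblasts with HSF1-driven luciferase reporter stressed by proteasome inhibitor MG132; luminescence from HSF1-driven luciferase expression after 8 hours of MG132 stress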
T2 sequence (P38532 whole entry): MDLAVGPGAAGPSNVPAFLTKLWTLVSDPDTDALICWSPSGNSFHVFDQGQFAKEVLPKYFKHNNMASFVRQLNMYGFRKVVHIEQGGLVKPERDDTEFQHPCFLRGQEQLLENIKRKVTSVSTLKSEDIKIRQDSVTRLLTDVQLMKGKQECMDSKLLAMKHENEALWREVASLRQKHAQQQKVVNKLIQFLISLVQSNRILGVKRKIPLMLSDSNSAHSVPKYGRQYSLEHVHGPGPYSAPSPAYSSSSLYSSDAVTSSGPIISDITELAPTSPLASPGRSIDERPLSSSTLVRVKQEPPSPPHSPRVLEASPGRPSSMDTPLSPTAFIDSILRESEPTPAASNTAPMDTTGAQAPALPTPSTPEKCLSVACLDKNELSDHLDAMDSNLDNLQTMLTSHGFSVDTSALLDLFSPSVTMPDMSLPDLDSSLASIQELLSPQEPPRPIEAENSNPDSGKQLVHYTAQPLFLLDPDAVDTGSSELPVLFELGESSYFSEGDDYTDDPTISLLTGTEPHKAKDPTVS

[11] = target: T3, Replicative DNA helicase DnaB (Mycobacterium tuberculosis, UniProt P9WMR3); test: DnaB intein splicing inhibitors, dose response, biochemical, cell-free fluorescence (AID 449749); format: functional
T3 sequence (P9WMR3 whole entry): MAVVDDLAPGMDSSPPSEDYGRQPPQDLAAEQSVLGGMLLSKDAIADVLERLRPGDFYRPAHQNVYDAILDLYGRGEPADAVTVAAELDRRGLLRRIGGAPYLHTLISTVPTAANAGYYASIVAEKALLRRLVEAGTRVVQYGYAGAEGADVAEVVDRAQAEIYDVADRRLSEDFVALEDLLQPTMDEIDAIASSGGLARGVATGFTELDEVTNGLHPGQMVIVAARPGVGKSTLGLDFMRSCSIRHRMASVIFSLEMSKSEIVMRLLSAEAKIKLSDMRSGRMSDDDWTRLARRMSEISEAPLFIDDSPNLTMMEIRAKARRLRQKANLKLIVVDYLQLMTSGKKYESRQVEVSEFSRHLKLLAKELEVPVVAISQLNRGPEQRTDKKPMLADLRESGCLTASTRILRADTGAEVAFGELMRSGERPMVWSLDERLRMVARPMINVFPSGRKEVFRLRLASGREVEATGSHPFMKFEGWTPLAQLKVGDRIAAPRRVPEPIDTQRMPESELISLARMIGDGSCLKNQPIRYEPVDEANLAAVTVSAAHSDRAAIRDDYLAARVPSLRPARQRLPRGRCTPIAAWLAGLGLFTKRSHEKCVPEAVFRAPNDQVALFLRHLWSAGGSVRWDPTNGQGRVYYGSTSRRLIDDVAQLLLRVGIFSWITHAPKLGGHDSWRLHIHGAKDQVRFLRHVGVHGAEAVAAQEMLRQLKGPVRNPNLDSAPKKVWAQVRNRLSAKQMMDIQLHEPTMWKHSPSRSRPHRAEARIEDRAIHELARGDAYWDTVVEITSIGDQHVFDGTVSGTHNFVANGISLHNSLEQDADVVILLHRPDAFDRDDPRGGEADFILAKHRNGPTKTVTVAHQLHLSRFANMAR

[12] = test system: Vero; test: cells; format: functional, cell-based; settings: Chlorocebus sabaeus
[13] = target: T4, Protein RecA (Mycobacterium tuberculosis, UniProt P9WHJ3); test: Fluorescence Cell-Free Homogeneous Dose Retest to Identify Inhibitors of RecA-Intein Splicing Activity. [Related pubchem assays (depositor defined):AID2097, AID2223, AID489010, AID492950]; format: functional
T4 sequence (P9WHJ3 whole entry): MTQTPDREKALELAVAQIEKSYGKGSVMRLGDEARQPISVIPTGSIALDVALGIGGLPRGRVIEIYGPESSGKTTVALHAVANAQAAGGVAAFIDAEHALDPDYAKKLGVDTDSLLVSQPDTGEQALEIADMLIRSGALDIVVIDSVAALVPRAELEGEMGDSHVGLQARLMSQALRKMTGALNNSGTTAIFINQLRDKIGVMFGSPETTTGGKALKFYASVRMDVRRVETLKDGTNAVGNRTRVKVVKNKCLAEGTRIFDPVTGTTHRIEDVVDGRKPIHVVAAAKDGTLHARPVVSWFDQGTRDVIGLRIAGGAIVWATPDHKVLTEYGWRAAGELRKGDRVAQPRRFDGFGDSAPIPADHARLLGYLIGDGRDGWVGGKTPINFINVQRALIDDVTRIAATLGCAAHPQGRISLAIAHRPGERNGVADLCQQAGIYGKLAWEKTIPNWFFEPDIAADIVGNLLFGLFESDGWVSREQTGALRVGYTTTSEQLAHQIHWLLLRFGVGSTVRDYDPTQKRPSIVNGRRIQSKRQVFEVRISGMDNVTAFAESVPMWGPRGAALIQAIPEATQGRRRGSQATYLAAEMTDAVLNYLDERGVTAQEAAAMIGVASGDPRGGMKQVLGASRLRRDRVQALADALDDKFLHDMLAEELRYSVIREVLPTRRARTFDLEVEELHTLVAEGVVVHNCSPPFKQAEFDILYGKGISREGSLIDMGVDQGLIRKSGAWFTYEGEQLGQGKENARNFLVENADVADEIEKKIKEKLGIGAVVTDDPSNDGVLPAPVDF

[14] = test system: Vero; test: cells; format: functional; settings: Chlorocebus sabaeus
[15] = target: Paired box protein Pax-8 (Homo sapiens, UniProt Q06710); test: PAX8 transcriptional activity inhibition in RMG-I – RMG-I cells, luciferase, cherry-pick, dose response (AID 687027); format: functional, cell-based;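 also: luciferase reporter driven by Pax8 target thyroperoxidase promoter measured by SteadyGlo luminescence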
[16] = general cell-killing toxicity readout – plate reader, dry powder samples, cytotoxicity control for PAX8 inhibitor project, dose response (AID 743021); format: functional, cell-based
[17] = test system: Streptococcus sp. 'group A'; test: Streptococcus pyogenes SK(-)GAS viability under kanamycin – luminescence, BacTiterGlo, confirmation, counter-screen for streptokinase expression inhibitor project, dose response (AID 1900); format: functional, organism-based
[18] = test system: Streptococcus; test: GAS UMAA2166 growth inhibition – luminescence, BacTiterGlo, counter-screen for streptokinase expression inhibitor project, dose response (AID 1915); format: functional, organism-based;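 also: potency for reduction of bacterial viability or growth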
[19] = test system: INS1; test: INS-1E survival protection against cytokine death – cell-based, luminescence, retest, dose response (AID 449756); format: functional; settings: Rattus norvegicus;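 also: cell death triggered by IL-1 beta plus TNF-alpha plus IFN-gamma mixture; protective hits raise ATP signal compared with cytokine alone wells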
[20] = target: T5, Aminopeptidase N (Plasmodium falciparum FcB1/Columbia, UniProt O96935); test: malaria alanyl aminopeptidase activity blockers – biochemical, fluorogenic H-Leu-NHMec substrate, 1536-well (AID 1445); design: species or system Plasmodium falciparum 3D7, 3D7
T5 sequence (O96935 whole entry): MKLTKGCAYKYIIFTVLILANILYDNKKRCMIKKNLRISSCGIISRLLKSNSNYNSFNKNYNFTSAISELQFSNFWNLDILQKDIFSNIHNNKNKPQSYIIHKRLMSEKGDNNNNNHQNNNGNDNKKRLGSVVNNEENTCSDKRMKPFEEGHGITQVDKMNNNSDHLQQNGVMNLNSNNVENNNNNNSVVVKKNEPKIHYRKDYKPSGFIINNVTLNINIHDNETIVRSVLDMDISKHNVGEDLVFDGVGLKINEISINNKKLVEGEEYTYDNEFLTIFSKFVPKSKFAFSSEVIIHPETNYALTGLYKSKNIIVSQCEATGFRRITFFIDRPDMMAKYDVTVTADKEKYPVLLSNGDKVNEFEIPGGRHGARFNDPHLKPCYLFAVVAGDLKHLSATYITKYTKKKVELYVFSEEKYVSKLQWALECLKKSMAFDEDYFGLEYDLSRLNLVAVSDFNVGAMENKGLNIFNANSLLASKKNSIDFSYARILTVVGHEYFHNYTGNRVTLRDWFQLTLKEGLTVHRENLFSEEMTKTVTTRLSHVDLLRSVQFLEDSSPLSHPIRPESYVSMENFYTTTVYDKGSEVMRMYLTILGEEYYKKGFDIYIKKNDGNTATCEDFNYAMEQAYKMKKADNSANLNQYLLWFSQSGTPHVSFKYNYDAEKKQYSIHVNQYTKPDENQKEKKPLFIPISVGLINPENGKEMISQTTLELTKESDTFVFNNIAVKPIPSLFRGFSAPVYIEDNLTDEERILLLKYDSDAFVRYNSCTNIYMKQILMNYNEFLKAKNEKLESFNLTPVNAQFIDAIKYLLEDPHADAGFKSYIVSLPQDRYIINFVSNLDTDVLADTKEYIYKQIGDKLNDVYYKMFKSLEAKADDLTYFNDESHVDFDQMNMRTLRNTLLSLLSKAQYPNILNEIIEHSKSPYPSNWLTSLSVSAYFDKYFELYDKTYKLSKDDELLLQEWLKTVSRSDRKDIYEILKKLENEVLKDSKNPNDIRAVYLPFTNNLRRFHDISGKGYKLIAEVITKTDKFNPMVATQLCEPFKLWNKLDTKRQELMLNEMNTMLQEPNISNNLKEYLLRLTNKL

Sequence of Voltage-gated inwardly rectifying potassium channel KCNH2 (Q12809 whole entry): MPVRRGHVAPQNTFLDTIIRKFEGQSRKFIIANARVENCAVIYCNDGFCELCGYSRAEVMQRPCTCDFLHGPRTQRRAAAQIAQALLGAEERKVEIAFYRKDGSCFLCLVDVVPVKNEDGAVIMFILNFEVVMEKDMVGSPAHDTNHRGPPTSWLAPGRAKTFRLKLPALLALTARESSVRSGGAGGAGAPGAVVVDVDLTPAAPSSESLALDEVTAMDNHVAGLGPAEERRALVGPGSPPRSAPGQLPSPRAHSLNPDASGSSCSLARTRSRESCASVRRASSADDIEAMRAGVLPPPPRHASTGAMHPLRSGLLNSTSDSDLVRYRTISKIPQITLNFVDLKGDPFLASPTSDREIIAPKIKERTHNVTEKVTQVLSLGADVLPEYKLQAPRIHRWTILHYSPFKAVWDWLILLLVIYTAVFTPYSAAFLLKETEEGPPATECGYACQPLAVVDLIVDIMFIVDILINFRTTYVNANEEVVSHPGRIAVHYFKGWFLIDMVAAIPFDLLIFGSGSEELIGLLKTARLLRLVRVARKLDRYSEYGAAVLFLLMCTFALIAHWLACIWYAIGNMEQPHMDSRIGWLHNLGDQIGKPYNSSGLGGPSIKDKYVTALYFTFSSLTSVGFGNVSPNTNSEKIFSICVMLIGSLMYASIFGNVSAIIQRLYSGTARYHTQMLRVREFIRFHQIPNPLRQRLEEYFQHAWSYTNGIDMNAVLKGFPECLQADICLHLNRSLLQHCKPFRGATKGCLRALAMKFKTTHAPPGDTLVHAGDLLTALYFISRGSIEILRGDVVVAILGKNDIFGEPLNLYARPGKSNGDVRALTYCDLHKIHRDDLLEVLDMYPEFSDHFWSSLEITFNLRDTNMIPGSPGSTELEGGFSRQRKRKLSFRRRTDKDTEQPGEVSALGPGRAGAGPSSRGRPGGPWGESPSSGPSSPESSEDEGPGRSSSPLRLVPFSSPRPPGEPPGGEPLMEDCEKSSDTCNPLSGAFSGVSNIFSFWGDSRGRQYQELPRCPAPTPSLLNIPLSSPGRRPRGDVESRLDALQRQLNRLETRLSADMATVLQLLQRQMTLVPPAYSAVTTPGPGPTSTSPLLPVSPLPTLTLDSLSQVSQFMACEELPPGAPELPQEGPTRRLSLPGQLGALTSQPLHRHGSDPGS
Sequence of ATP-dependent molecular chaperone HSP82 (C4YTQ8 whole entry): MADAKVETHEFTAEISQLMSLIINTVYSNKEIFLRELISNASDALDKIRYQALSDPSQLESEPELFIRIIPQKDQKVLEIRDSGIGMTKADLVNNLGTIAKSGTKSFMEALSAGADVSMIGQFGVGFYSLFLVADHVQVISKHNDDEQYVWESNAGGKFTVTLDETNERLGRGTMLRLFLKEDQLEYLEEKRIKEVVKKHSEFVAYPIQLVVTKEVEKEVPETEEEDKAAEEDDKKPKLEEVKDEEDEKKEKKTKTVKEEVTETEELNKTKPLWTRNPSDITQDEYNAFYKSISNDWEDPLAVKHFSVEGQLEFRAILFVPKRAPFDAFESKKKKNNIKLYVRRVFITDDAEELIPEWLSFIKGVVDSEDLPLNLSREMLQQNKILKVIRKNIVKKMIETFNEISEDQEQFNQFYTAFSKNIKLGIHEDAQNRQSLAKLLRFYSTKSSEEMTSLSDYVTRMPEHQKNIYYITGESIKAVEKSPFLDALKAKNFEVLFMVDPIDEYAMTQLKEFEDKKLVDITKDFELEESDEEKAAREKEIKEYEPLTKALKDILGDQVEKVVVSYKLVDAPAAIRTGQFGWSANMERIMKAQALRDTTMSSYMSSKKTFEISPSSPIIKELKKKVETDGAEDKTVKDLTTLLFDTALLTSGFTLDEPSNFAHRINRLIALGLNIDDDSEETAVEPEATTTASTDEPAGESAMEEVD
Sequence of Mu-type opioid receptor (P35372 whole entry): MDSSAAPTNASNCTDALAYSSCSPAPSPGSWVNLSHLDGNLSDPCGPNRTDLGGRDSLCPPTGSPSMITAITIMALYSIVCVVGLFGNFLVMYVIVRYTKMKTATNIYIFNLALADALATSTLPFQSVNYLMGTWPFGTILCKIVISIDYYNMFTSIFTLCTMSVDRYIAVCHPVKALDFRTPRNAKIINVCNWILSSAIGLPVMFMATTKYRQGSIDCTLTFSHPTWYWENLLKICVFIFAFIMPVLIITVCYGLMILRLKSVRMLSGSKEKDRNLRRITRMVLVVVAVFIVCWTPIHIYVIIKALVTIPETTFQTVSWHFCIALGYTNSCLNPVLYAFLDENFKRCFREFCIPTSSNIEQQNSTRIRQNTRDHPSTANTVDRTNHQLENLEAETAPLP
Sequence of 5-hydroxytryptamine receptor 2A (P35363 whole entry): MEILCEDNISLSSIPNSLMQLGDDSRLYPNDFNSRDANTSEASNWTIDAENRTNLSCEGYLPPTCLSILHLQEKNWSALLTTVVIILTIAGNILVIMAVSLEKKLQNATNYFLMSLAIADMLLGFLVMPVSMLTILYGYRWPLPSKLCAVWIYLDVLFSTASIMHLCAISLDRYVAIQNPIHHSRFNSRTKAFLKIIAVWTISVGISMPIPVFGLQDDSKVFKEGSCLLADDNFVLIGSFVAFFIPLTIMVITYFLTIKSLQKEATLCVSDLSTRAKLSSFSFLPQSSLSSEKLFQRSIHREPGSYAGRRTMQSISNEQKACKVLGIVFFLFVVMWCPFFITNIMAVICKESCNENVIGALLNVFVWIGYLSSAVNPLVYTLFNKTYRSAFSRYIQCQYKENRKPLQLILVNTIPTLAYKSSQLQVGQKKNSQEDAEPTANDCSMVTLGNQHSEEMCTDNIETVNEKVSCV
Sequence of Paired box protein Pax-8 (Q06710 whole entry): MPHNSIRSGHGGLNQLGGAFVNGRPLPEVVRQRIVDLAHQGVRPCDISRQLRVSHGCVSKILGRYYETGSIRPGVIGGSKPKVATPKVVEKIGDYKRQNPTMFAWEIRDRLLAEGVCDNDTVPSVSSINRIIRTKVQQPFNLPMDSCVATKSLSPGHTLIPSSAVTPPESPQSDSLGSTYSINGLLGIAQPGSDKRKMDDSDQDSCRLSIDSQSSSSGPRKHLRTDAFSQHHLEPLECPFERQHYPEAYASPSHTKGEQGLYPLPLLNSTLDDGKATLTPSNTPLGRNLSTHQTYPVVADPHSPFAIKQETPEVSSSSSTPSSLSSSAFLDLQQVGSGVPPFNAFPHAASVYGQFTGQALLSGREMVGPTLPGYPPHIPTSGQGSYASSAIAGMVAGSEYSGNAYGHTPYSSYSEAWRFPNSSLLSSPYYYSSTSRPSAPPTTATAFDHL

Structure (SMILES): COc1cccc(-c2nc(NC(C)C)c3ccccc3n2)c1O
- EC50 [1]: > 160 µM (inactive)
- EC50 [2]: 4.42 µM (active)
- EC50 [3]: > 180 µM (inactive)
- EC50 [4]: 54.5 µM (active)
- EC50 [5]: 92.5 µM (inactive)
- EC50 [6]: 8.51 µM (active)

Structure (SMILES): OCc1c[nH]cn1
- AC50 [7]: 1.78 µM (inconclusive)

Structure (SMILES): O=C(O)c1cc(/N=C/c2c(O)oc3ccccc3c2=O)ccc1O
- AC50 [8]: 32.5 µM (active)

Structure (SMILES): CC(=O)Nc1ccc(NS(=O)(=O)c2ccc3ccccc3c2)cc1
- AC50 [9]: 27.4 µM (active)

Structure (SMILES): COc1cc(N)c(Cl)cc1C(=O)OCCN1CCCCC1
- AC50 [7]: 25.1 µM (inconclusive)

Structure (SMILES): CC(C)OC(=O)Cn1c(=O)oc2ccccc21
- EC50 [10]: > 195 µM (not active)
- AC50 [9]: 21.8 µM (active)

Structure (SMILES): Cc1cccc(N(Cc2cc(O)nc3ccccc23)C(=O)CCl)c1
- AC50 [11]: 10.5 µM (active)
- IC50 [12]: > 25 µM (active)
- EC50 [13]: 1.67 µM (active)
- CC50 [14]: 5.83 µM (active)
- AC50 [15]: 3.93 µM (active)
- AC50 [16]: 24.9 µM (active)

Structure (SMILES): CC(C)c1ccccc1 [ISOPROPYLBENZENE]
- AC50 [7]: 1.58 µM (inconclusive)

Structure (SMILES): CCCC(=O)Nc1nc(-c2ccc3c(c2)OCCO3)cs1
- AC50 [8]: 8.75 µM (active)

Structure (SMILES): Cc1cc(N/N=C/c2c(O)ccc3ccccc23)nc(-c2ccccc2O)n1
- EC50 [1]: > 160 µM (inactive)
- EC50 [17]: 0.235 µM (active)
- EC50 [2]: 2.07 µM (active)
- EC50 [3]: > 180 µM (inactive)
- EC50 [18]: 0.425 µM (active)
- AC50 [19]: 1.69 µM (active)
- EC50 [4]: 38.8 µM (active)

Structure (SMILES): Cc1cc(-c2ccc(C(=O)O)s2)cnc1N
- IC50 [20]: 58.9 µM (active)
- AC50 [8]: 4.79 µM (active)

Structure (SMILES): CC(Oc1cccnc1[N+](=O)[O-])C(=O)N1CCc2ccccc21 (stereo not given)
- AC50 [9]: 22.2 µM (active)
